Consider 32 molecules from ChEMBL document CHEMBL4418495, “Entpd5 inhibitors” (2012).

The target of assay [1] is T1, Nucleoside diphosphate phosphatase ENTPD5 (Homo sapiens) (UniProt O75356).
T1 sequence (whole entry): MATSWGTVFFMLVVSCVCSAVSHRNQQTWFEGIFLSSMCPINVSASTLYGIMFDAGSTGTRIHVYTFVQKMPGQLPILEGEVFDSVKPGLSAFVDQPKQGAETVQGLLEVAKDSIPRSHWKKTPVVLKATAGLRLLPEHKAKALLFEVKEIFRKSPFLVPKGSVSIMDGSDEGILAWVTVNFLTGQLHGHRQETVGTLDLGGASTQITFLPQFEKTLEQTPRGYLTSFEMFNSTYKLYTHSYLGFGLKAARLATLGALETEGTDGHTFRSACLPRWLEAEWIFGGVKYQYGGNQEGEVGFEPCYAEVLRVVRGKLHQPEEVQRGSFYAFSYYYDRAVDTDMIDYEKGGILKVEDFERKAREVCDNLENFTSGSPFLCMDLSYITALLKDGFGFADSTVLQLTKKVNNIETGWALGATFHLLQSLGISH
The experiment in a line: Inhibition of human recombinant ENTPD5 expressed in insect cells assessed as reduction in UDP hydrolysis up to 10 uM incubated for 1 hr in presence of UMP, GTP and ATP by Escherichia coli UMP kinase pyrH catalyzed UMP phosphorylation coupled luciferase assay.

Assay [2] has as its target T1, Nucleoside diphosphate phosphatase ENTPD5 (Homo sapiens). The assay is described as follows: Inhibition of human recombinant ENTPD5 expressed in insect cells assessed as reduction in UDP hydrolysis at 1 uM incubated for 1 hr in presence of UMP, GTP and ATP by Escherichia coli UMP kinase pyrH catalyzed UMP phosphorylation coupled luciferase assay.
In assay [3] the target is T2, Uridylate kinase (Escherichia coli (strain K12)) (UniProt P0A7E9).
T2 sequence (whole entry): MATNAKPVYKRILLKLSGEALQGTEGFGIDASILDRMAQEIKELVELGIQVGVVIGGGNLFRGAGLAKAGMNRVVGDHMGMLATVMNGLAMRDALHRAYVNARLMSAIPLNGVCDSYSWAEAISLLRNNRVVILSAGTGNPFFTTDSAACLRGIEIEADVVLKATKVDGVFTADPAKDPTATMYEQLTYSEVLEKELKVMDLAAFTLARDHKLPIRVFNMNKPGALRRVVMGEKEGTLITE
The assay is described as follows: Inhibition of recombinant Escherichia coli UMP kinase pyrH catalyzed UMP phosphorylation in presence of GTP and ATP incubated for 1 hr by luminescence based assay.

For assay [4], the target named is T1, Nucleoside diphosphate phosphatase ENTPD5 (Homo sapiens). The assay is described as follows: Inhibition of human recombinant ENTPD5 expressed in insect cells assessed as reduction in reduction in UDP hydrolysis by measuring inorganic phosphate release incubated for 1 hr by malachite green based assay.

Calls of active or inactive are those of the source. How the calls were made is not given here.

As for `O=C1C=CC(Br)=C/C1=C/NNC(=O)c1cc2ccccc2cc1O`, the inhibition entry in assay [1] was “Dose-dependent effect”. In addition, the inhibition result in assay [2] and in assay [4] was “Active” in each case. Besides, the inhibition entry in assay [3] was “inactive”.

On to `Cc1ccc(-c2ccc(C=C3C(=O)NC(=O)NC3=O)o2)c(Br)c1`, for which, in assay [1], the inhibition entry was “Dose-dependent effect”. Besides, the inhibition entry in assay [2] and in assay [4] was “Active” each time. The inhibition entry in assay [3] was “inactive”.

On to `O=C(Nc1nonc1NC(=O)c1sc2cc(Cl)ccc2c1Cl)c1sc2cc(Cl)ccc2c1Cl`, for which the inhibition entry in assay [1] is “Dose-dependent effect”. For the same molecule, the inhibition entry in assay [2] and in assay [4] was “Active” each time. For the same molecule, the inhibition entry in assay [3] was “inactive”.

On to `CC(C)(C)c1cc(CN(CCO)CCO)cc(C(C)(C)C)c1O`, for which the inhibition result in assay [1] was “Dose-dependent effect”. The inhibition result in assay [2] and in assay [4] was “Active” each time. Also, the inhibition result in assay [3] was “inactive”.

On to `O=C1OC(c2ccccc2)OC(=O)C1=Cc1ccc(-c2cc([N+](=O)[O-])ccc2Cl)o1` (stereo not drawn), for which, in assay [1], the inhibition entry is “Dose-dependent effect”. Moreover, the inhibition entry in assay [2] and in assay [4] was “Active” in each case. Moreover, in assay [3], the inhibition entry was “inactive”.

Take `O=[N+]([O-])c1cccc(C2C3CC=CC3c3cc([N+](=O)[O-])cc4c3N2CC2CC=CC42)c1` (stereo not drawn): the inhibition result in assay [1] was “Dose-dependent effect”. The inhibition result in assay [2] and in assay [4] was “Active” in each case. The inhibition entry in assay [3] is “inactive”.

Take `COc1cccc(C(c2cc(C(C)(C)C)c(O)c(C(C)(C)C)c2)N2CCOCC2)c1OC` (stereo not drawn): the inhibition result in assay [1] is “Dose-dependent effect”. Further, the inhibition entry in assay [2] and in assay [4] was “Active” in each case. Also, the inhibition entry in assay [3] was “inactive”.

Consider `O=C(Nc1ccc(Oc2ccc(NC(=O)c3cccs3)cc2)cc1)c1cccs1`, for which the inhibition result in assay [1] was “Dose-dependent effect”. In addition, the inhibition entry in assay [2] and in assay [4] was “Active” each time. In addition, the inhibition entry in assay [3] was “inactive”.

Regarding `CCN(CC)c1ccc(C(Nc2ccccn2)c2ccc3cccnc3c2O)cc1` (stereo not drawn), in assay [1], the inhibition entry was “Dose-dependent effect”. In addition, the inhibition result in assay [2] and in assay [4] was “Active” in each case. Also, the inhibition result in assay [3] was “inactive”.

For `O=C1/C(=C\C=C\c2ccco2)SC(=S)N1Cc1ccccc1`, in assay [1], the inhibition result is “Dose-dependent effect”. Further, the inhibition entry in assay [2] and in assay [4] was “Active” each time. For the same molecule, in assay [3], the inhibition entry was “inactive”.

As to `O=C1S/C(=C/c2ccco2)C(=O)N1c1ccc(Cl)cc1`, the inhibition result in assay [1] was “Dose-dependent effect”. The inhibition result in assay [2] and in assay [4] was “Active” each time. For the same molecule, the inhibition entry in assay [3] is “inactive”.

In the case of `COc1cccc(/C=c2/sc3n(c2=O)C(c2cccs2)C2=C(N=3)c3ccccc3CC2)c1O` (stereo not drawn), the inhibition result in assay [1] is “Dose-dependent effect”. In addition, the inhibition entry in assay [2] and in assay [4] was “Active” throughout. Besides, the inhibition result in assay [3] was “inactive”.

Take `C#CCn1cc(/C=C2\C(=O)NC(=S)N(c3ccc(Br)cc3)C2=O)c2ccccc21`: in assay [1], the inhibition result is “Dose-dependent effect”. In addition, the inhibition entry in assay [2] and in assay [4] was “Active” in each case. For the same molecule, the inhibition result in assay [3] was “inactive”.

As for `O=c1cc(-c2ccco2)nc(-c2ccco2)o1`, the inhibition result in assay [1] was “Dose-dependent effect”. The inhibition entry in assay [2] and in assay [4] was “Active” throughout. Further, the inhibition entry in assay [3] is “inactive”.

As to `O=S(=O)(c1ccc2ccccc2c1)N(CCc1csc2nc(-c3ccc4ccccc4c3)cn12)Cc1ccco1`, the inhibition entry in assay [1] is “Dose-dependent effect”. In addition, the inhibition entry in assay [2] and in assay [4] was “Active” throughout. Moreover, the inhibition result in assay [3] was “inactive”.

For `Cc1nn2cc(-c3ccccc3)cc2c2c(C)n(C)c(C)c12`, the inhibition entry in assay [1] was “Dose-dependent effect”. For the same molecule, the inhibition entry in assay [2] and in assay [4] was “Active” each time. In assay [3], the inhibition entry was “inactive”.

For `O=C(O)C1=CC(C(c2ccc(O)c(C(=O)O)c2)c2ccc(O)c(C(=O)O)c2)C=CC1=O` (stereo not drawn), the inhibition entry in assay [1] is “Dose-dependent effect”. For the same molecule, the inhibition entry in assay [2] and in assay [4] was “Active” in each case. Further, the inhibition result in assay [3] was “inactive”.

Regarding `CC(C)(C)C(=O)Nc1ccc(C(=O)Nc2ccc(-c3nc4ncccc4o3)cc2)cc1`, the inhibition result in assay [1] is “Dose-dependent effect”. The inhibition result in assay [2] and in assay [4] was “Active” in each case. The inhibition result in assay [3] was “inactive”.

As for `O=C1c2c(O)cccc2Cc2cccc(O)c21`, the inhibition entry in assay [1] is “Dose-dependent effect”. In addition, the inhibition result in assay [2] and in assay [4] was “Active” in each case. Further, the inhibition entry in assay [3] was “inactive”.

`N#Cc1ccccc1COc1ccc(/C=C2/SC(=S)NC2=O)cc1Br`: the inhibition entry in assay [1] was “Dose-dependent effect”. The inhibition entry in assay [2] and in assay [4] was “Active” throughout. Moreover, in assay [3], the inhibition result is “inactive”.

`CN(C)c1ccc(/C=C(\NC(=O)c2cccc(F)c2)C(=O)N/N=C/c2cc(Cl)cc([N+](=O)[O-])c2O)cc1`: the inhibition entry in assay [1] was “Dose-dependent effect”. For the same molecule, the inhibition result in assay [2] and in assay [4] was “Active” each time. Moreover, in assay [3], the inhibition result was “inactive”.

Take `CC1=C(C(=O)OC(C)C)C(c2cn(-c3ccccc3)nc2-c2ccc(Cl)cc2)C(C(=O)OC(C)C)=C(C)N1`: the inhibition entry in assay [1] is “Dose-dependent effect”. Moreover, the inhibition result in assay [2] and in assay [4] was “Active” each time. For the same molecule, the inhibition result in assay [3] was “inactive”.

Turning to `C=CCN1C(=O)/C(=C\c2cccn2C)C(=O)NC1=S`, the inhibition entry in assay [1] is “Dose-dependent effect”. Further, the inhibition entry in assay [2] and in assay [4] was “Active” in each case. In assay [3], the inhibition entry is “inactive”.

As to `Cc1ccc(/C=C/C(=O)Nc2nc3ccc(Cl)cc3s2)o1`, the inhibition entry in assay [1] is “Dose-dependent effect”. In addition, the inhibition entry in assay [2] and in assay [4] was “Active” each time. Further, in assay [3], the inhibition result was “inactive”.

Turning to `COc1ccc2c(c1)C1C=CCC1C(c1ccc([N+](=O)[O-])cc1)N2` (stereo not drawn), the inhibition entry in assay [1] was “Dose-dependent effect”. Further, the inhibition result in assay [2] and in assay [4] was “Active” throughout. Moreover, in assay [3], the inhibition result is “inactive”.

Consider `O=C1NC(=O)C(=Cc2cn(-c3ccccc3)nc2-c2ccc(F)cc2)C(=O)N1`, for which the inhibition result in assay [1] is “Dose-dependent effect”. Moreover, the inhibition entry in assay [2] and in assay [4] was “Active” each time. The inhibition result in assay [3] is “inactive”.

For `CN1C(=O)C(=Cc2ccc(Sc3ccccc3)o2)C(=O)N(C)C1=S`, in assay [1], the inhibition entry was “Dose-dependent effect”. The inhibition result in assay [2] and in assay [4] was “Active” each time. Moreover, the inhibition result in assay [3] is “inactive”.

`N=C1NC(=O)/C(=C/C=C/c2ccc([N+](=O)[O-])o2)S1`: the inhibition result in assay [1] is “Dose-dependent effect”. Also, the inhibition result in assay [2] and in assay [4] was “Active” each time. Also, the inhibition entry in assay [3] was “inactive”.

On to `O=C(NCCNc1ccc([N+](=O)[O-])cc1)c1ccc(CSc2nnnn2-c2ccccc2)cc1`, for which, in assay [1], the inhibition entry is “Dose-dependent effect”. The inhibition entry in assay [2] and in assay [4] was “Active” each time. Besides, the inhibition result in assay [3] is “inactive”.

Regarding `COc1cc(-c2ccc(/C=C3\SC(=N)N(c4nccs4)C3=O)o2)c(OC)cc1Cl`, the inhibition result in assay [1] was “Dose-dependent effect”. Also, the inhibition entry in assay [2] and in assay [4] was “Active” throughout. The inhibition result in assay [3] was “inactive”.

Turning to `O=C1OC(c2ccccc2)OC(=O)C1=Cc1ccc(-c2cccc(Br)c2)o1` (stereo not drawn), the inhibition entry in assay [1] is “Dose-dependent effect”. In addition, the inhibition entry in assay [2] and in assay [4] was “Active” in each case. In addition, the inhibition result in assay [3] was “inactive”.

As for `O=C(O)c1ccc(NC(=O)c2ccc3c(c2)C(=O)N(c2ccc(/N=N/c4ccccc4)cc2)C3=O)cc1`, in assay [1], the inhibition result was “Dose-dependent effect”. Also, the inhibition result in assay [2] and in assay [4] was “Active” in each case. Further, the inhibition result in assay [3] is “inactive”.
